Measured values published in patent US8501911B2, “Methods of reducing inflammation and mucus hypersecretion” (Biomarck Pharmaceuticals, Ltd, priority 1999, dated 2013).
“And” between values parts separate entries of the source, which are not always exact repeats. Equal values may be shown once. Read-outs that look alike come from different tables or passages of the source. Residues, ends and D or L forms follow the SMILES beside them. *: point of attachment. Myristoyl = CCCCCCCCCCCCCC(=O)*

Columns and labels:
NHBE cells = experiment: PMA+8-Br-cGMP-induced mucin secretion from NHBE cells (ELISA); type: cell-based, human; details: for Mucin secretion level relative to media control: pre- and co-incubation with 100 nM PMA+1 μM 8-Br-cGMP (Results-M-1A/M-3A)
Description: Peptide Blocking Studies—NHBE cells were preincubated with either the MANS or the RNS peptide (1-100 μM) for 15 min, and then PMA (100 nM)+8-Br-cGMP (1 μM) or UTP (100 μM) was added, and cells were incubated for an additional 15 min or 2 h. respectively. Mucin secretion was measured by ELISA and experimental results are designated as Results-I-2B-1 and Results-I-2B-2, as follows. […]
Measurement of Mucin Secretion by ELISA—Before collection of “base line” and “test” mucin samples, the accumulated mucus at the apical surface of the cells was removed by washing with phosphate-buffered saline, pH 7.2. To collect the base-line secretion, cells were incubated with medium alone, and secreted mucin in the apical medium was collected and reserved. Cells were rested for 24 h and then exposed to medium containing the selected stimulatory and/or inhibitory reagents (or appropriate controls), after which secreted mucin was collected and reserved as the test sample. Incubation times for the base line and the test were the same but varied depending on the test reagent utilized. Both base line and test secretions were analyzed by ELISA using an antibody capture method as known in the art. See, e.g., Harlow et al., Antibodies: A Laboratory Manual, pp. 570-573, Cold Spring Harbor Laboratory, Cold Spring Harbor, N.Y. (1988). The primary antibody for this assay was 17Q2 (Babco, Richmond, Calif.), a monoclonal antibody that reacts specifically with a carbohydrate epitope on human airway mucins. The ratio of test/base-line mucin, which is similar to a “secretory index”, was used to quantify mucin secretion, allowing each culture dish to serve as its own control and thus, minimizing deviation caused by variability among culture wells. Wright et al., Am. J. Physiol. 271, L854-L861 (1996). Levels of mucin secretion were reported as percentage of the medium control.
MARCKS-related Peptides—Both the myristoylated N-terminal sequence (MANS) and the random N-terminal sequence (RNS) peptides were synthesized at Genemed Synthesis, Inc. (San Francisco, Calif.), then purified by high pressure liquid chromatography (>95% pure), and confirmed by mass spectroscopy with each showing one single peak with an appropriate molecular mass. The MANS peptide consisted of sequence identical to the first 24 amino acids of MARCKS, i.e. the myristoylated N-terminal region that mediates MARCKS insertion into membranes, MA-[…] (SEQ ID NO: 1) (where MA=N-terminal myristate chain). The corresponding control peptide (RNS) contained the same amino acid composition as the MANS but arranged in random order, MA-[…] (SEQ ID NO: 26). The presence of the hydrophobic myristate moiety in these synthetic peptides enhances their permeability to the plasma membranes, enabling the peptides to be taken up readily by cells. To determine the effects of these peptides on mucin secretion, cells were preincubated with the peptides for 15 min prior to addition of secretagogues, and mucin secretion was then measured by ELISA.
Antisense Oligonucleotides—MARCKS antisense oligonucleotide and its corresponding control oligonucleotide were synthesized at Biognostik GmbH (Gottingen, Germany). NHBE cells were treated with 5 μM antisense or control oligonucleotide apically for 3 days (in the presence of 2 μg/ml lipofectin for the first 24 h). Cells were then incubated with secretagogues, and mucin secretion was measured by ELISA. Total RNA and protein were isolated from treated cells. MARCKS mRNA was assessed by Northern hybridization according to conventional procedures using human MARCKS cDNA as a probe. MARCKS protein level was determined by Western blot using purified anti-MARCKS IgG1 (clone 2F12) as the primary detection antibody.
The effect on mucus secretion of a myristoylated peptide containing the first 24 amino acids of the human MARCKS protein (MANS; myristoylated N-terminal sequence; SEQ ID NO: ) was tested. Cultured normal human bronchial epithelial cells as described above were used. […]

human neutrophils = experiment: Inhibition of release of myeloperoxidase (MPO) from PMA-stimulated human neutrophils; type: cell-based; details: at 100 μM of test peptide; 100 nM PMA
From the text: Human neutrophil isolation: Human neutrophils were isolated according to a slightly modified method previously described by Akasaki T, Koga H, and Sumimoto H., Phosphoinositide 3-kinase-dependent and -independent activation of the small GTPase Rac2 in human neutrophils, J. Biol. Chem. 274:18055-18059, 1999. Alternatively, human neutrophils were isolated as previously described (see Takashi S, OkuboY, Horie S. Contribution of CD54 to human eosinophil and neutrophil superoxide production. J. Appl. Physiol. 91:613-622, 2001) with slight modifications. Briefly, heparinized venous blood was obtained from normal healthy human volunteers, diluted with RPMI-1640 (Cellgro; Mediatech, Inc., Herndon, Va.) at a ratio of 1:1, layered onto a Histopaque (density, 1.077 g/ml; Sigma-Aldrich Co., St. Louis, Mo.), and centrifuged at 400 g for 20 min at 4° C. The supernatant and mononuclear cells at the interface were carefully removed, and erythrocytes in the sediment were lysed in chilled distilled water. Isolated granulocytes were washed twice with Hanks' balanced salts solution (HBSS) and resuspended in HBSS on ice. The neutrophils used for the experiments were of >98% purity with <2% contamination by eosinophils, and the viability was >99% as determined by Trypan blue dye exclusion.
Measurement of released MPO activity: Purified human neutrophils suspended in HBSS were aliquoted at 4×10^6 cells/ml in 15 ml tubes and preincubated with either 50 or 100 μM of test peptide (dissolved in PBS, pH 7.0) for 10 min at 37° C. […] Secretions were quantified by using as a standard, human MPO.
MPO activity in the cell supernatant was assayed using tetramethylbenzidine (TMB) based on a previously established technique (Paige L, Mahmudi-Azer S, Bablitz B, Hage S C, Velazquez J R, Man S F P, and Moqbel R. Rapid Mobilization of intracellularly stored RANTES in response to Interferon-γ in human eosinophils. Blood, 94:23-32, 1999). […] The reaction was terminated by addition of 50 μl of 1M H2SO4 and absorbance was read at 450 nm in a spectrophotometric microplate reader (Molecular Devices, Sunnyvale, Calif.).

[1] = peptide 1 μM, 15 min preincubation, then PMA 100 nM+8-Br-cGMP 1 μM 15 min (Results-I-2B-1)
[2] = peptide 10 μM, 15 min preincubation, then PMA 100 nM+8-Br-cGMP 1 μM 15 min (Results-I-2B-1)
[3] = peptide 100 μM, 15 min preincubation, then PMA 100 nM+8-Br-cGMP 1 μM 15 min (Results-I-2B-1)

For `CCCCCCCCCCCCCC(=O)NCC(=O)N[C@@H](C)C(=O)N[C@@H](CCC(N)=O)C(=O)N[C@@H](Cc1ccccc1)C(=O)N[C@@H](CO)C(=O)N[C@@H](CCCCN)C(=O)N[C@H](C(=O)N[C@@H](C)C(=O)N[C@@H](C)C(=O)N[C@@H](CCCCN)C(=O)NCC(=O)N[C@@H](CCC(=O)O)C(=O)N[C@@H](C)C(=O)N[C@@H](C)C(=O)N[C@@H](C)C(=O)N[C@@H](CCC(=O)O)C(=O)N[C@@H](CCCNC(=N)N)C(=O)N1CCC[C@H]1C(=O)NCC(=O)N[C@@H](CCC(=O)O)C(=O)N[C@@H](C)C(=O)N[C@@H](C)C(=O)N[C@H](C(=O)N[C@@H](C)C(=O)O)C(C)C)[C@@H](C)O` [MANS peptide] (Myristoyl-GAQFSKTAAKGEAAAERPGEAAVA-OH; C-terminus assumed), the “Relative mucin secretion level referenced to stimulated level (M-3A-3) as 100%” value (NHBE cells; peptide 1 μM) was 90%, the “Mucin secretion as % of control” value (NHBE cells; [1]) was 188% and the “Mucin secretion level relative to media control” value (NHBE cells; peptide 1 μM) was 171%. For the same molecule, the “Relative mucin secretion level referenced to stimulated level (M-3A-3) as 100%” value (NHBE cells; peptide 10 μM) was 61%, the “Mucin secretion as % of control” value (NHBE cells; [2]) was 129% and the “Mucin secretion level relative to media control” value (NHBE cells; peptide 10 μM) was 117%. The “Relative mucin secretion level referenced to stimulated level (M-3A-3) as 100%” value (NHBE cells; peptide 100 μM) was 16%, the “Mucin secretion as % of control” value (NHBE cells; [3]) was 35% and the “Mucin secretion level relative to media control” value (NHBE cells; peptide 100 μM) was 29% and 30%. The “% Inhibition MPO” value (human neutrophils) was 31.2%.

With `CCCCCCCCCCCCCC(=O)NCC(=O)N[C@H](C(=O)N[C@@H](C)C(=O)N1CCC[C@H]1C(=O)N[C@@H](C)C(=O)N[C@@H](C)C(=O)N[C@@H](CCC(=O)O)C(=O)NCC(=O)N[C@@H](C)C(=O)NCC(=O)N[C@@H](C)C(=O)N[C@@H](CCC(=O)O)C(=O)N[C@H](C(=O)N[C@@H](CCCCN)C(=O)N[C@@H](CCCNC(=N)N)C(=O)N[C@@H](C)C(=O)N[C@@H](CO)C(=O)N[C@@H](C)C(=O)N[C@@H](CCC(=O)O)C(=O)N[C@@H](C)C(=O)N[C@@H](CCCCN)C(=O)N[C@@H](CCC(N)=O)C(=O)N[C@@H](C)C(=O)N[C@@H](Cc1ccccc1)C(=O)O)C(C)C)[C@@H](C)O` [RNS peptide, reference compound] (Myristoyl-GTAPAAEGAGAEVKRASAEAKQAF-OH; C-terminus assumed) the “Mucin secretion as % of control” value (NHBE cells; [1]) was 216%, the “Mucin secretion as % of control” value (NHBE cells; [2]) was 208% and the “Mucin secretion as % of control” value (NHBE cells; [3]) was 206%. For the same molecule, the “% Inhibition MPO” value (human neutrophils) was 0%.

With `CCCCCCCCCCCCCC(=O)NCC(=O)N[C@@H](C)C(=O)N[C@@H](CCC(N)=O)C(=O)N[C@@H](Cc1ccccc1)C(=O)N[C@@H](CO)C(=O)N[C@@H](CCCCN)C(=O)N[C@H](C(=O)N[C@@H](C)C(=O)N[C@@H](C)C(=O)N[C@@H](CCCCN)C(=O)NCC(=O)N[C@@H](CCC(=O)O)C(=O)O)[C@@H](C)O` [SEQ ID NO: 13, N-myristoyl-GAQFSKTAAKGE] (Myristoyl-GAQFSKTAAKGE-OH; C-terminus assumed) the “% Inhibition MPO” value (human neutrophils) was 43.2%.

Molecule `C[C@@](O)(/C=C/[C@H]1CC=CC(=O)O1)[C@@H](C[C@@H](O)\C=C/C=C\C=C\CO)OP(=O)(O)O` [fostriecin] has an activity at 0.001 µM (NHBE cells; Homo sapiens, NHBE, inhibitor 1 nM, 15 min preincubation, then PMA 100 nM+8-Br-cGMP 1 μM 15 min, read-out: Mucin secretion as % of control) of 198%, an activity at 0.01 µM (NHBE cells; Homo sapiens, NHBE, inhibitor 10 nM, 15 min preincubation, then PMA 100 nM+8-Br-cGMP 1 μM 15 min, read-out: Mucin secretion as % of control) of 182% and an activity at 0.1 µM (NHBE cells; Homo sapiens, NHBE, inhibitor 100 nM, 15 min preincubation, then PMA 100 nM+8-Br-cGMP 1 μM 15 min, read-out: Mucin secretion as % of control) of 170%. For the same molecule, the activity at 0.5 µM (NHBE cells; Homo sapiens, NHBE, inhibitor 500 nM, 15 min preincubation, then PMA 100 nM+8-Br-cGMP 1 μM 15 min, read-out: Mucin secretion as % of control) was 134%.

`C=C1[C@@H](O)[C@@H]2O[C@]3(CC[C@H](/C=C/[C@@H](C)[C@@H]4CC(C)=C[C@@]5(O[C@H](C[C@@](C)(O)C(=O)O)CC[C@H]5O)O4)O3)CC[C@H]2O[C@@H]1[C@@H](O)C[C@H](C)[C@H]1O[C@@]2(CCCCO2)CC[C@H]1C` [okadaic acid] was tested, and the activity at 0.5 µM (NHBE cells; Homo sapiens, NHBE, read-out: Mucin secretion as % of control, inhibitor 500 nM, 15 min preincubation, then PMA 100 nM+8-Br-cGMP 1 μM 15 min) was 157%, the “Reduction in mucin secretion level from PMA+8-Br-cGMP-stimulated level” value (NHBE cells; inhibitor 500 nM) was 27% and the “Mucin secretion as % of control” value (NHBE cells; inhibitor 500 nM, 15 min preincubation, then PMA 100 nM+8-Br-cGMP 1 μM 15 min) was 155%.

With TNF-α the “Mucin secretion level, % of control” value (NHBE cells; TNF-α 10 ng/ml 4 h, then PMA 100 nM+8-Br-cGMP 1 μM 15 min) was 255%.
